Active and inactive are the calls of the source. The calls are words filed in the database; no cut-off is given here.
Columns and labels:
[1] = target: T1, Protein cereblon/Stimulator of interferon genes protein (Mus musculus) (UniProt Q3TBT3+Q8C7D2); experiment: In vivo inhibition of STING signaling pathway in C57BL/6J mouse assessed as inhibition of cisplatin-induced IFN-beta mRNA expression in kidney at 25 to 50 mg/kg by qPCR analysis; format: functional, organism-based; details: dose 25-50 mg/kg
T1 sequence (Q8C7D2 whole entry, looked up, one chain of several): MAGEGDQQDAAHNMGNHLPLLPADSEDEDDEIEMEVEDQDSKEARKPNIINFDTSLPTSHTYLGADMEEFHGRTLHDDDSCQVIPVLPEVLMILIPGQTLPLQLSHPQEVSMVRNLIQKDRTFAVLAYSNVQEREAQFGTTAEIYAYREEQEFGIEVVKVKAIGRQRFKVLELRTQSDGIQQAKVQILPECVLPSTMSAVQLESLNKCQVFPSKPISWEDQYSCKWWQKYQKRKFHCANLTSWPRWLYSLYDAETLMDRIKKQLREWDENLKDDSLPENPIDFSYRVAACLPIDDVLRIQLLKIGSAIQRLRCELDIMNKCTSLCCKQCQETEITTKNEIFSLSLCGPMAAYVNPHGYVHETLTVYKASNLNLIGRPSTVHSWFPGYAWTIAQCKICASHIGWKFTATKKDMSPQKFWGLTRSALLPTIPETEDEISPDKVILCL

Mus musculus [2] = experiment: Anti-inflammatory activity against C57BL/6J mouse assessed as inhibition of cisplatin-induced hepatic impairment by measuring restoration of ALT activity at 25 to 50 mg/kg; format: functional, organism-based; details: dose 25-50 mg/kg
[3] = target: T1, Protein cereblon/Stimulator of interferon genes protein (Mus musculus); experiment: In vivo inhibition of STING signaling pathway in C57BL/6J mouse assessed as inhibition of cisplatin-induced CXCL10 mRNA expression in kidney at 25 to 50 mg/kg by qPCR analysis; format: functional, organism-based; details: dose 25-50 mg/kg
[4] = target: T2, Protein cereblon/Stimulator of interferon genes protein (Homo sapiens, UniProt Q96SW2+Q86WV6); experiment: PROTAC activity at CRBN/STING in human THP-1 cells assessed as inhibition of cGAMP-induced ISG15 mRNA expression incubated for 1 hr followed by stimulation with cGAMP for 24 hrs by qRT-PCR analysis; format: cell-based; details: dose 5-20 µM, time 25.0 hrs
T2 sequence (Q86WV6 whole entry, looked up): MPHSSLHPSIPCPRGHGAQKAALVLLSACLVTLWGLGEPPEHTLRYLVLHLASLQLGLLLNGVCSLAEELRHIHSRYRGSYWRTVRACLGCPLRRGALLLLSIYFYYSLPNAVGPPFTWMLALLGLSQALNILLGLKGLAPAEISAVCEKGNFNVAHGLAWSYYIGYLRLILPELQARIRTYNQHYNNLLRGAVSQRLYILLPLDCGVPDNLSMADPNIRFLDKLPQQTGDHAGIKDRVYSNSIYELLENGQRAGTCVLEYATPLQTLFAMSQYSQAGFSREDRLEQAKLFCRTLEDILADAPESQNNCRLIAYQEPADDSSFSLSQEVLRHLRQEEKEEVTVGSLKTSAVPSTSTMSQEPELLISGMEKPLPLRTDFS
T2 sequence (Q96SW2 whole entry, looked up): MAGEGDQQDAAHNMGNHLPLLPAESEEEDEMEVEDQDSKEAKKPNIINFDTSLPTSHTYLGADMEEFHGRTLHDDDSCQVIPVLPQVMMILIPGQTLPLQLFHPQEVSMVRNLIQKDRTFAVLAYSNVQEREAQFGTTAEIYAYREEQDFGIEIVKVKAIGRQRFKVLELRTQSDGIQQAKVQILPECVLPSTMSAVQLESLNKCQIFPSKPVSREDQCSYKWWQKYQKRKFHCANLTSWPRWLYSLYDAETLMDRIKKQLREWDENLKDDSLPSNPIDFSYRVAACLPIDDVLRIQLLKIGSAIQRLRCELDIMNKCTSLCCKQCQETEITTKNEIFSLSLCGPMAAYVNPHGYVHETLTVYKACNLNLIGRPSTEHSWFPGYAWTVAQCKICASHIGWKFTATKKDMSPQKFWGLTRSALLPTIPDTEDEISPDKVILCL

Mus musculus [5] = experiment: Anti-inflammatory activity against cisplatin-induced acute kidney injury C57BL/6J mouse model assessed as decrease in plasma uric acid level at 25 to 50 mg/kg; format: functional, organism-based; details: dose 25-50 mg/kg
[6] = target: T2, Protein cereblon/Stimulator of interferon genes protein; experiment: PROTAC activity at CRBN/STING in human THP-1 cells assessed as induction of STING degradation at 10 uM measured after 9 hrs by western blot analysis; format: cell-based
[7] = target: T2, Protein cereblon/Stimulator of interferon genes protein; experiment: PROTAC activity at CRBN/STING in human THP-1 cells assessed as inhibition of cGAMP-induced IRF3 phosphorylation incubated for 24 hrs followed by stimulation with cGAMP for 24 hrs by western blot analysis; format: cell-based; details: dose 0.3-20 µM, time 48.0 hrs
[8] = target: T2, Protein cereblon/Stimulator of interferon genes protein; experiment: PROTAC activity at CRBN/STING in human THP-1 cells assessed as inhibition of cGAMP-induced IFN-beta mRNA expression incubated for 1 hr followed by stimulation with cGAMP for 24 hrs by qRT-PCR analysis; format: cell-based; details: dose 5-20 µM, time 25.0 hrs
[9] = target: T2, Protein cereblon/Stimulator of interferon genes protein; experiment: PROTAC activity at CRBN/STING in human THP-1 cells assessed as induction of STING degradation at 10 uM incubated for 24 hrs followed by replacement with fresh medium without compound and measured after 24 hrs by western bot analysis; format: cell-based
HEK-293T = experiment: Cytotoxicity against HEK293T cells assessed as effect on cell viability at <10 uM incubated for 48 hrs by MTT assay; format: toxicity, cell-based; details: human
HUVEC = experiment: Cytotoxicity against HUVEC assessed as effect on cell viability at <10 uM incubated for 48 hrs by MTT assay; format: toxicity, cell-based; details: human
[10] = Stability of the compound in human plasma assessed as parent compound remaining at 400 ug/ml measured after 24 hrs by HPLC analysis; format: ADME, cell-free; details: at 400 µg/mL, read-out: Stability
Mus musculus [11] = experiment: Anti-inflammatory activity against cisplatin-induced acute kidney injury C57BL/6J mouse model assessed as decrease in plasma BUN level at 25 to 50 mg/kg; format: functional, organism-based; details: dose 25-50 mg/kg
[12] = Toxicity against cisplatin-induced acute kidney injury C57BL/6J mouse model assessed as effect on liver morphology at 25 to 50 mg/kg by Hematoxylin-Eosin staining based microscopic analysis; format: organism-based; details: in vivo, dose 25-50 mg/kg
[13] = target: T1, Protein cereblon/Stimulator of interferon genes protein (Mus musculus); experiment: In vivo inhibition of STING signaling pathway in C57BL/6J mouse assessed as inhibition of cisplatin-induced IL-1 beta mRNA expression in kidney at 25 to 50 mg/kg by qPCR analysis; format: functional, organism-based; details: dose 25-50 mg/kg
[14] = target: T1, Protein cereblon/Stimulator of interferon genes protein (Mus musculus); experiment: PROTAC activity at CRBN/STING in mouse RAW264.7 cells assessed as induction of STING degradation at 0.33 to 30 uM incubated for 24 hrs by western blot analysis; format: cell-based; details: dose 0.33-30 µM
[15] = target: T1, Protein cereblon/Stimulator of interferon genes protein (Mus musculus); experiment: In vivo inhibition of STING signaling pathway in C57BL/6J mouse assessed as inhibition of cisplatin-induced ISG15 mRNA expression in kidney at 25 to 50 mg/kg by qPCR analysis; format: functional, organism-based; details: dose 25-50 mg/kg
[16] = target: T3, Stimulator of interferon genes protein (Mus musculus) (UniProt Q3TBT3); experiment: Inhibition of STING in mouse RAW264.7 cells assessed as reduction in DMXAA-induced IL-6 mRNA expression at 5 to 20 uM pretreated for 1 hr followed by stimulation with DMXAA for 24 hrs by qRT-CPR analysis; format: cell-based; details: dose 5-20 µM, time 25.0 hrs
T3 sequence (whole entry): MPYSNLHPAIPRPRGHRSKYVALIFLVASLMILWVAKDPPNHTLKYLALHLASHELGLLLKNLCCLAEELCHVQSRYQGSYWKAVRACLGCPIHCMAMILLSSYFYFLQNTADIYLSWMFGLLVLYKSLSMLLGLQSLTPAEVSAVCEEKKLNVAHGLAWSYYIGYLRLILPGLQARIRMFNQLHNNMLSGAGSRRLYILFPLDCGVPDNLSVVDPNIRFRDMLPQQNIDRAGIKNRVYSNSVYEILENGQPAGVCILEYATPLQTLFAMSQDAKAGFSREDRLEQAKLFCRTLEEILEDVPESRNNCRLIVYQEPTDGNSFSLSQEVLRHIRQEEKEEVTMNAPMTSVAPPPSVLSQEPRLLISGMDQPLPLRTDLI

THP-1 = experiment: Effect on STING mRNA expression in human THP-1 cells at 10 uM incubated for 12 to 48 hrs by qRT-PCR analysis; format: functional, cell-based; details: time 12-48 hrs
[17] = target: T3, Stimulator of interferon genes protein (Mus musculus); experiment: Inhibition of STING in mouse RAW264.7 cells assessed as reduction in DMXAA-induced TNF-alpha mRNA expression at 5 to 20 uM pretreated for 1 hr followed by stimulation with DMXAA for 24 hrs by qRT-CPR analysis; format: cell-based; details: dose 5-20 µM, time 25.0 hrs
[18] = target: T2, Protein cereblon/Stimulator of interferon genes protein; experiment: PROTAC activity at CRBN/STING in human THP-1 cells assessed as inhibition of cGAMP-induced IL-6 mRNA expression incubated for 1 hr followed by stimulation with cGAMP for 24 hrs by qRT-PCR analysis; format: cell-based; details: dose 5-20 µM, time 25.0 hrs
Mus musculus [19] = experiment: Anti-inflammatory activity against cisplatin-induced acute kidney injury C57BL/6J mouse model assessed as decrease in plasma creatinine level at 25 to 50 mg/kg; format: functional, organism-based; details: dose 25-50 mg/kg

For `O=C1CCC(N2C(=O)c3cccc(OCc4cn(CCCCCC(=O)OCCc5ccc(NC(=O)c6ccc([N+](=O)[O-])o6)cc5)nn4)c3C2=O)C(=O)N1` (configuration not stated), the inhibition [1] was “Active”, the Activity (Mus musculus [2]) was “Active” and the inhibition [3] was “Active”. For the same compound, the Activity [4] was “Dose-Dependent Effect”, the Activity (Mus musculus [5]) was “Active” and the Activity [6] was “Active”. The Activity [7] was “Dose-Dependent Effect”, the Activity [8] was “Dose-Dependent Effect” and the Activity [9] was “inactive”. For the same compound, the Activity (HEK-293T) was “Non-Toxic”, the Activity (HUVEC) was “Non-Toxic” and the remaining at 24 h, 400 ug/ml [10] was roughly 66%. For the same compound, the Activity (Mus musculus [11]) was “Active”, the Activity [12] was “Non-Toxic” and the inhibition [13] was “Active”. The Activity [14] was “inactive”, the inhibition [15] was “Active” and the inhibition [16] was “Dose-Dependent Effect”. The Activity (THP-1) was “inactive”, the inhibition [17] was “Dose-Dependent Effect” and the Activity [18] was “Dose-Dependent Effect”. The Activity (Mus musculus [19]) was “Active”.

— ChEMBL document CHEMBL6127068, “Discovery of novel nitrofuran PROTAC-like compounds as dual inhibitors and degraders targeting STING” (Eur J Med Chem, 2024)
